Like-named read-outs stand apart in the source and are kept apart here. Positions of bridges follow the written chain, without caps; N, C: chain ends. Non-standard residues stand in square brackets, D forms with d. Residues, ends and D or L forms follow the SMILES beside them. ξ: configuration not given here. Phe(3-Me) = Cc1cccc(C[C@H](N)C(=O)O)c1; Phe(4-Me) = Cc1ccc(C[C@H](N)C(=O)O)cc1; Cit = NC(=O)NCCC[C@H](N)C(=O)O; Ahp(2) = CCCCC[C@H](N)C(=O)O; NMeNle = CCCC[C@H](NC)C(=O)O; Tle = CC(C)(C)[C@H](N)C(=O)O; NHexGly = CCCCCCNCC(=O)O; Nle = CCCC[C@H](N)C(=O)O; Orn = NCCC[C@H](N)C(=O)O; ξS = NC(CO)C(=O)O
Target: T1, mouse VISTA (mVISTA) (Mus musculus, UniProt Q9D659)
T1 construct: expressed in transfected cells; host or cells: Human embryonic kidney 293T cells
T1 sequence (Q9D659 33-308): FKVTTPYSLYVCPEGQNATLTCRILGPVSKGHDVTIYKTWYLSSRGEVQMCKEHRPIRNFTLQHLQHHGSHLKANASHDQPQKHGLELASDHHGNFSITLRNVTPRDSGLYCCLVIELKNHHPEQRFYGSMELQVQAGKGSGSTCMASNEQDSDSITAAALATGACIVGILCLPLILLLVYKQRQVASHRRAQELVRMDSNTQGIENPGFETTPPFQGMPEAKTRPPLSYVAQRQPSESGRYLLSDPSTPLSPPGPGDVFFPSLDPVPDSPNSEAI
Assay: Cell-Based Binding High-Content Assay For mVISTA (HC CBA mVISTA)
Conditions: read-out: HC CBA mVISTA IC50
Outline: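 mVISTA-293T, 4,000 cells/well; cpd ± washout step; biotin-peptide 2 nM final, 30 min RT; SA-Alexa 647 30 min; formaldehyde/Hoechst fix; HCS imaging; 4PL IC50.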

[1] = the 19th table, scaffold drawing 22

| SMILES | IC50 | IC50 [1] |
| --- | --- | --- |
| CCCCCCN1CC(=O)N[C@@H](Cc2ccc(O)cc2)C(=O)N[C@@H](CCCCC)C(=O)N[C@@H](CC(N)=O)C(=O)N[C@@H](CCCNC(=N)N)C(=O)N(C)[C@@H](CCCC)C(=O)N[C@@H](CCCCC)C(=O)N2CCC[C@H]2C(=O)N[C@@H](C(C)C)C(=O)N[C@@H](C(C)C)C(=O)N[C@H](C(=O)NCC(=O)O)CSCC(=O)N[C@@H](Cc2ccccc2)C(=O)N[C@@H](Cc2cccc(C)c2)C(=O)N[C@@H](CC(=O)O)C1=O [compound 1344] ({CH2CO}-F[Phe(3-Me)]D[NHexGly]Y[Ahp(2)]NR[NMeNle][Ahp(2)]PVVCG-OH; thioether N-14) | 0.011 µM |  |
| CCCCCCN1CC(=O)N[C@@H](Cc2ccc(O)cc2)C(=O)N[C@@H](CCCC)C(=O)N[C@@H](CC(N)=O)C(=O)N[C@@H](CCCNC(=N)N)C(=O)N(C)[C@@H](CCCC)C(=O)N[C@@H](CCCCC)C(=O)N2CCC[C@H]2C(=O)N[C@@H](C(C)C)C(=O)N[C@@H](CC(=O)O)C(=O)N[C@H](C(=O)NCC(=O)O)CSCC(=O)N[C@@H](Cc2ccccc2)C(=O)N[C@@H](Cc2cccc(C)c2)C(=O)N[C@@H](CC(=O)O)C1=O [compound 1345] ({CH2CO}-F[Phe(3-Me)]D[NHexGly]Y[Nle]NR[NMeNle][Ahp(2)]PVDCG-OH; thioether N-14) | 0.0127 µM |  |
| CCCCCCN1CC(=O)N[C@@H](Cc2ccc(O)cc2)C(=O)N[C@@H](CCCCC)C(=O)N[C@@H](CC(N)=O)C(=O)N[C@@H](CCCNC(=N)N)C(=O)N(C)[C@@H](CCCC)C(=O)N[C@@H](CCCCC)C(=O)N2CCC[C@H]2C(=O)N[C@@H](C(C)C)C(=O)N[C@@H](C(C)C)C(=O)N[C@H](C(=O)NC(CO)C(=O)O)CSCC(=O)N[C@@H](Cc2ccccc2)C(=O)N[C@@H](Cc2cccc(C)c2)C(=O)N[C@@H](CC(=O)O)C1=O (stereo partly drawn) [compound 1346] ({CH2CO}-F[Phe(3-Me)]D[NHexGly]Y[Ahp(2)]NR[NMeNle][Ahp(2)]PVVC[ξS]-OH; thioether N-14) | 0.0061 µM |  |
| CCCCCCN1CC(=O)N[C@@H](Cc2ccc(O)cc2)C(=O)N[C@@H](CCCC)C(=O)N[C@@H](CC(=O)O)C(=O)N[C@@H](CCCNC(=N)N)C(=O)N(C)[C@@H](CCCC)C(=O)N[C@@H](CCCCC)C(=O)N2CCC[C@H]2C(=O)N[C@@H](C(C)C)C(=O)N[C@@H](CC(=O)O)C(=O)N[C@H](C(=O)NC(CO)C(N)=O)CSCC(=O)N[C@@H](Cc2ccccc2)C(=O)N[C@@H](Cc2cccc(C)c2)C(=O)N[C@@H](CC(=O)O)C1=O (stereo partly drawn) [compound 1347] ({CH2CO}-F[Phe(3-Me)]D[NHexGly]Y[Nle]DR[NMeNle][Ahp(2)]PVDC[ξS]-NH2; thioether N-14) | 0.0106 µM |  |
| CCCCCCN1CC(=O)N[C@@H](Cc2ccc(O)cc2)C(=O)N[C@@H](CCCC)C(=O)N[C@@H](CC(=O)O)C(=O)N[C@@H](CCCN)C(=O)N(C)[C@@H](CCCC)C(=O)N[C@@H](CCCCC)C(=O)N2CCC[C@H]2C(=O)N[C@@H](C(C)C)C(=O)N[C@@H](CC(=O)O)C(=O)N[C@H](C(=O)NC(CO)C(N)=O)CSCC(=O)N[C@@H](Cc2ccccc2)C(=O)N[C@@H](Cc2cccc(C)c2)C(=O)N[C@@H](CC(=O)O)C1=O (stereo partly drawn) [compound 1348] ({CH2CO}-F[Phe(3-Me)]D[NHexGly]Y[Nle]D[Orn][NMeNle][Ahp(2)]PVDC[ξS]-NH2; thioether N-14) | 0.0232 µM |  |
| CCCCCCN1CC(=O)N[C@@H](Cc2ccc(O)cc2)C(=O)N[C@@H](CC(C)C)C(=O)N[C@@H](CC(N)=O)C(=O)N[C@@H](CCCNC(=N)N)C(=O)N(C)[C@@H](CCCC)C(=O)N[C@@H](CCCCC)C(=O)N2CCC[C@H]2C(=O)N[C@@H](C(C)(C)C)C(=O)N[C@@H](CO)C(=O)N[C@H](C(=O)NCC(N)=O)CSCC(=O)N[C@@H](Cc2ccccc2)C(=O)N[C@@H](Cc2ccc(C)cc2)C(=O)N[C@@H](CC(=O)O)C1=O [compound 1349] ({CH2CO}-F[Phe(4-Me)]D[NHexGly]YLNR[NMeNle][Ahp(2)]P[Tle]SCG-NH2; thioether N-14) | 0.0436 µM |  |
| CCCCCCN1CC(=O)N[C@@H](Cc2ccc(O)cc2)C(=O)N[C@@H](CCCC)C(=O)N[C@@H](CC(=O)O)C(=O)N[C@@H](CCCN)C(=O)N[C@@H](CC(C)C)C(=O)N[C@@H](CCCCC)C(=O)N2CCC[C@H]2C(=O)N[C@@H](C(C)C)C(=O)N[C@@H](CC(=O)O)C(=O)N[C@H](C(=O)N[C@@H](CC(=O)O)C(N)=O)CSCC(=O)N[C@@H](Cc2cccc(C)c2)C(=O)N[C@@H](Cc2c[nH]c3ccccc23)C(=O)N[C@@H](CC(=O)O)C1=O [compound 1418] ({CH2CO}-[Phe(3-Me)]WD[NHexGly]Y[Nle]D[Orn]L[Ahp(2)]PVDCD-NH2; thioether N-14) |  | 0.0076 µM |
| CCCCCCN1CC(=O)N[C@@H](Cc2ccc(O)cc2)C(=O)N[C@@H](CCCC)C(=O)N[C@@H](CC(=O)O)C(=O)N[C@@H](CCCNC(=N)N)C(=O)N[C@@H](CC(C)C)C(=O)N[C@@H](CCCCC)C(=O)N2CCC[C@H]2C(=O)N[C@@H](C(C)C)C(=O)N[C@@H](CC(=O)O)C(=O)N[C@H](C(=O)N[C@@H](CC(=O)O)C(N)=O)CSCC(=O)N[C@@H](Cc2cccc(C)c2)C(=O)N[C@@H](Cc2c[nH]c3ccccc23)C(=O)N[C@@H](CC(=O)O)C1=O [compound 1419] ({CH2CO}-[Phe(3-Me)]WD[NHexGly]Y[Nle]DRL[Ahp(2)]PVDCD-NH2; thioether N-14) |  | 0.0081 µM |
| CCCCCCN1CC(=O)N[C@@H](Cc2ccc(O)cc2)C(=O)N[C@@H](CCCC)C(=O)N[C@@H](CC(N)=O)C(=O)N[C@@H](CCCNC(=N)N)C(=O)N[C@@H](CC(C)C)C(=O)N[C@@H](CCCCC)C(=O)N2CCC[C@H]2C(=O)N[C@@H](C(C)C)C(=O)N[C@@H](CC(=O)O)C(=O)N[C@H](C(=O)NCC(=O)O)CSCC(=O)N[C@@H](Cc2cccc(C)c2)C(=O)N[C@@H](Cc2c[nH]c3ccccc23)C(=O)N[C@@H](CC(=O)O)C1=O [compound 1420] ({CH2CO}-[Phe(3-Me)]WD[NHexGly]Y[Nle]NRL[Ahp(2)]PVDCG-OH; thioether N-14) |  | 0.002 µM |
| CCCCCCN1CC(=O)N[C@@H](Cc2ccc(O)cc2)C(=O)N[C@@H](CCCC)C(=O)NCC(=O)N[C@@H](CCCNC(=N)N)C(=O)N[C@@H](CC(C)C)C(=O)N[C@@H](CCCCC)C(=O)N2CCC[C@H]2C(=O)N[C@@H](C(C)C)C(=O)N[C@@H](CC(=O)O)C(=O)N[C@H](C(=O)NCC(=O)O)CSCC(=O)N[C@@H](Cc2cccc(C)c2)C(=O)N[C@@H](Cc2c[nH]c3ccccc23)C(=O)N[C@@H](CC(=O)O)C1=O [compound 1421] ({CH2CO}-[Phe(3-Me)]WD[NHexGly]Y[Nle]GRL[Ahp(2)]PVDCG-OH; thioether N-14) |  | 0.0031 µM |
| CCCCCCN1CC(=O)N[C@@H](Cc2ccc(O)cc2)C(=O)N[C@@H](CC(C)C)C(=O)N[C@@H](CC(N)=O)C(=O)N[C@@H](CCCNC(=N)N)C(=O)N[C@@H](CC(C)C)C(=O)N[C@@H](CCCCC)C(=O)N2CCC[C@H]2C(=O)N[C@@H](C(C)C)C(=O)N[C@@H](C(C)C)C(=O)N[C@H](C(=O)NCC(=O)O)CSCC(=O)N[C@@H](Cc2cccc(C)c2)C(=O)N[C@@H](Cc2c[nH]c3ccccc23)C(=O)N[C@@H](CC(=O)O)C1=O [compound 1422] ({CH2CO}-[Phe(3-Me)]WD[NHexGly]YLNRL[Ahp(2)]PVVCG-OH; thioether N-14) |  | 0.0042 µM |
| CCCCCCN1CC(=O)N[C@@H](Cc2ccc(O)cc2)C(=O)N[C@@H](CCCC)C(=O)N[C@@H](CC(N)=O)C(=O)N[C@@H](CCCNC(N)=O)C(=O)N[C@@H](CC(C)C)C(=O)N[C@@H](CCCCC)C(=O)N2CCC[C@H]2C(=O)N[C@@H](C(C)C)C(=O)N[C@@H](CC(=O)O)C(=O)N[C@H](C(=O)NCC(=O)O)CSCC(=O)N[C@@H](Cc2cccc(C)c2)C(=O)N[C@@H](Cc2c[nH]c3ccccc23)C(=O)N[C@@H](CC(=O)O)C1=O [compound 1423] ({CH2CO}-[Phe(3-Me)]WD[NHexGly]Y[Nle]N[Cit]L[Ahp(2)]PVDCG-OH; thioether N-14) |  | 0.0167 µM |
| CCCCCCN1CC(=O)N[C@@H](Cc2ccc(O)cc2)C(=O)N[C@@H](CCCC)C(=O)N[C@@H](CC(N)=O)C(=O)N[C@@H](CCCNC(=N)N)C(=O)N[C@@H](CC(C)C)C(=O)N[C@@H](CCCCC)C(=O)N2CCC[C@H]2C(=O)N[C@@H](C(C)C)C(=O)N[C@@H](CC(=O)O)C(=O)N[C@H](C(=O)N[C@@H](CO)C(=O)O)CSCC(=O)N[C@@H](Cc2cccc(C)c2)C(=O)N[C@@H](Cc2c[nH]c3ccccc23)C(=O)N[C@@H](CC(=O)O)C1=O [compound 1424] ({CH2CO}-[Phe(3-Me)]WD[NHexGly]Y[Nle]NRL[Ahp(2)]PVDCS-OH; thioether N-14) |  | 0.0119 µM |
| CCCCCCN1CC(=O)N[C@@H](Cc2ccc(O)cc2)C(=O)N[C@@H](CCCC)C(=O)NCC(=O)N[C@@H](CCCNC(=N)N)C(=O)N[C@@H](CC(C)C)C(=O)N[C@@H](CCCCC)C(=O)N2CCC[C@H]2C(=O)N[C@@H](C(C)C)C(=O)N[C@@H](CC(=O)O)C(=O)N[C@H](C(=O)N[C@@H](CO)C(=O)O)CSCC(=O)N[C@@H](Cc2cccc(C)c2)C(=O)N[C@@H](Cc2c[nH]c3ccccc23)C(=O)N[C@@H](CC(=O)O)C1=O [compound 1425] ({CH2CO}-[Phe(3-Me)]WD[NHexGly]Y[Nle]GRL[Ahp(2)]PVDCS-OH; thioether N-14) |  | 0.0134 µM |
| CCCCCCN1CC(=O)N[C@@H](Cc2ccc(O)cc2)C(=O)N[C@@H](CC(C)C)C(=O)N[C@@H](CC(N)=O)C(=O)N[C@@H](CCCNC(=N)N)C(=O)N[C@@H](CC(C)C)C(=O)N[C@@H](CCCCC)C(=O)N2CCC[C@H]2C(=O)N[C@@H](C(C)C)C(=O)N[C@@H](C(C)C)C(=O)N[C@H](C(=O)N[C@@H](CO)C(=O)O)CSCC(=O)N[C@@H](Cc2cccc(C)c2)C(=O)N[C@@H](Cc2c[nH]c3ccccc23)C(=O)N[C@@H](CC(=O)O)C1=O [compound 1426] ({CH2CO}-[Phe(3-Me)]WD[NHexGly]YLNRL[Ahp(2)]PVVCS-OH; thioether N-14) |  | 0.0041 µM |

Reference: US20240218022A1, “ANTI-VISTA MACROCYCLIC PEPTIDES AND COMPOSITIONS” (BRISTOL-MYERS SQUIBB COMPANY, priority 2022, published 2024)
